Assay results: BigSolDB 2.1

O=c1c2ccccc2nc2n1CCc1c-2[nH]c2ccccc12
solubility (mole fraction)
Settings	283.15 K	288.15 K	293.15 K	298.15 K	303.15 K	308.15 K	313.15 K	318.15 K	323.15 K
in acetone	0.00069	0.00079	0.000929	0.00106	0.00122	0.00139	0.00158	0.0018	0.00205
in ethanol	0.000132	0.00016	0.000191	0.000229	0.000271	0.00032	0.000375	0.00044	0.000509
in isopropanol	7.46e-05	9.8e-05	0.000124	0.00016	0.000201	0.000257	0.000318	0.000396	0.000488
in methanol	6.1e-05	7.33e-05	8.79e-05	0.000105	0.000125	0.000148	0.000172	0.000201	0.000234
in water	1.45e-09	2.02e-09	2.84e-09	3.97e-09	5.49e-09	7.6e-09	1.04e-08	1.38e-08	1.85e-08
